Test results: patent US20170121315A1, “HETEROBICYCLICALLY SUBSTITUTED 4-OXOBUTANE ACID DERIVATIVES AND USE THEREOF” (priority 2014, published 2017)

Tests used:
[1] = molecular target: T1, human macrophage elastase (HME/hMMP-12) (Homo sapiens, UniProt P39900); assay: In vitro HME inhibition test (standard or high-sensitivity); type: biochemical; conditions: in some cases mean values, rounded to two significant figures
T1 construct: purchased R&D Systems 917-MP
How it was run: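 Autoactivated HME (0.5 nM; high-sensitivity format 0.05 nM, ~16 h) with 5 μM quenched Mca-PLGLEEA-Dap(Dnp)-NH2 substrate in HEPES pH 7.4, NaCl, CaCl2, ZnCl2, EDTA, Brij buffer, 2 h at 37° C. Fluorescence at ex 323/em 393 nm; IC50 from signal versus concentration.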

rat hepatocytes = assay: Hepatocyte assay for determination of metabolic stability; type: in vitro ADME; conditions: after incubation with rat hepatocytes
Description: The metabolic stability of test compounds towards hepatocytes is determined by incubating the compounds at low concentrations (preferably below or around 1 μM) and at low cell counts (preferably at 1*10^6 cells/ml) in order to ensure maximum linearity of kinetic conditions in the experiment. Seven samples from the incubation solution are taken for the LC-MS analysis within a fixed time pattern, in order to determine the half-life (i.e. the degradation) of the particular compound. This half-life is used to calculate various “Clearance” parameters (CL) and “Fmax” values (see below).
The CL and Fmax values are a measure of the phase 1 and phase 2 metabolism of the compounds in the hepatocytes. In order to minimize the influence of the organic solvent on the enzymes in the incubation batches, the concentration thereof is generally limited to 1% (acetonitrile) or 0.1% (DMSO).
For all species and breeds, a hepatocyte cell count in the liver of 1.1*10^8 cells/g of liver is expected.

T1 sequence (P39900 106-470): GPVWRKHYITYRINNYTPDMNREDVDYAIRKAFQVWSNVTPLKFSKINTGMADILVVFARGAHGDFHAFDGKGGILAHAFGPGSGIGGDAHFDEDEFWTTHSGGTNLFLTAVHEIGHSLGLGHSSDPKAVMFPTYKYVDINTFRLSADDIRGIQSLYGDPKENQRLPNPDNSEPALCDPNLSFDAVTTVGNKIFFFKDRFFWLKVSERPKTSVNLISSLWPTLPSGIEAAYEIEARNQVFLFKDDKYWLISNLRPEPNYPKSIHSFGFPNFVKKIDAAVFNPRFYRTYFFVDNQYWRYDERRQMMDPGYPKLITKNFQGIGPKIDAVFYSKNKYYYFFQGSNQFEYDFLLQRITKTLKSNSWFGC

| SMILES | IC50 [1] [nM] | CLblood (calculated blood clearance, well-stirred) (rat hepatocytes) [mL/min/kg] | Fmax (maximum possible bioavailability after oral administration, well-stirred) (rat hepatocytes) [%] |
| --- | --- | --- | --- |
| NC(=O)c1cccc(COc2ccc3oc(C(=O)CC(CCn4nnc5ccccc5c4=O)C(=O)O)cc3c2)c1 (racemic) [Example 32, (+/−)-4-{5-[(3-Carbamoylbenzyl)oxy]-1-benzofur-2-yl}-4-oxo-2-[2-(4-oxo-1,2,3-benzotriazin-3(4H)-yl)ethyl]butanoic acid] | 0.68 | 22 | 68.5 |
| CS(=O)(=O)c1ccc(COc2ccc3oc(C(=O)CC(CCn4nnc5ccccc5c4=O)C(=O)O)cc3c2)cc1 (racemic) [Example 38, (+/−)-4-(5-{[4-(Methylsulphonyl)benzyl]oxy}-1-benzofur-2-yl)-4-oxo-2-[2-(4-oxo-1,2,3-benzotriazin-3(4H)-yl)ethyl]butanoic acid] | 0.72 | 12.5 | 82.1 |
| O=C(CC(CCn1nnc2ccccc2c1=O)C(=O)O)c1coc2cc(OCc3ccc(Cl)c(Cl)c3)ccc12 (single isomer, unassigned) [Example 94, 4-{6-[(3,4-Dichlorobenzyl)oxy]-1-benzofur-3-yl}-4-oxo-2-[2-(4-oxo-1,2,3-benzotriazin-3(4H)-yl)ethyl]butanoic acid] | 0.82 | 25.8 | 63.2 |
| O=C(CC(CCn1nnc2ccc(C(F)(F)F)cc2c1=O)C(=O)O)c1cc2ccc(OCC3CC3)cc2s1 (single isomer, unassigned; enantiomer 1) [Example 129, 4-[6-(Cyclopropylmethoxy)-1-benzothiophen-2-yl]-4-oxo-2-{2-[4-oxo-6-(trifluoromethyl)-1,2,3-benzotriazin-3(4H)-yl]ethyl}butanoic acid (enantiomer 1)] | 13 |  |  |
| O=C(CC(CCn1nnc2ccccc2c1=O)C(=O)O)c1noc2cc(OCc3ccc(F)cc3)ccc12 (single isomer, unassigned; enantiomer 1) [Example 137, 4-{6-[(4-Fluorobenzyl)oxy]-1,2-benzoxazol-3-yl}-4-oxo-2-[2-(4-oxo-1,2,3-benzotriazin-3(4H)-yl)ethyl]butanoic acid (enantiomer 1)] | 35 |  |  |
| O=C(O)[C@@H]1[C@@H](Cn2nnc3ccc(C(F)(F)F)cc3c2=O)CC[C@H]1C(=O)c1cc2cc(OCCc3ccccc3)ccc2o1 (single isomer, unassigned; enantiomer 1) [Example 158, (−)-(1RS,2SR,5RS)-2-{[4-Oxo-6-(trifluoromethyl)-1,2,3-benzotriazin-3(4H)-yl]methyl}-5-{[5-(2-phenylethoxy)-1-benzofur-2-yl]carbonyl}cyclopentanecarboxylic acid (enantiomer 1)] | 260 |  |  |
| O=C(CC(CCn1nnc2ccc(C(F)(F)F)cc2c1=O)C(=O)O)c1cc2ccc(OCC3CC3)cc2s1 (single isomer, unassigned; enantiomer 2) [Example 130, 4-[6-(Cyclopropylmethoxy)-1-benzothiophen-2-yl]-4-oxo-2-{2-[4-oxo-6-(trifluoromethyl)-1,2,3-benzotriazin-3(4H)-yl]ethyl}butanoic acid (enantiomer 2)] | 0.12 | 34.8 | 50.3 |
| O=C(CC(CCn1nnc2ccccc2c1=O)C(=O)O)c1noc2cc(OCc3ccc(F)cc3)ccc12 (single isomer, unassigned; enantiomer 2) [Example 138, 4-{6-[(4-Fluorobenzyl)oxy]-1,2-benzoxazol-3-yl}-4-oxo-2-[2-(4-oxo-1,2,3-benzotriazin-3(4H)-yl)ethyl]butanoic acid (enantiomer 2)] | 0.33 |  |  |

The next lines start with the values.

| IC50 [1] [nM] | CLblood (calculated blood clearance, well-stirred) (rat hepatocytes) [mL/min/kg] | Fmax (maximum possible bioavailability after oral administration, well-stirred) (rat hepatocytes) [%] | SMILES |
| --- | --- | --- | --- |
| 0.24 | 13.3 | 81.1 | O=C(CC(CCn1nnc2ccccc2c1=O)C(=O)O)c1noc2cc(OCC3CCOCC3)ccc12 (racemic) [Example 133, (+/−)-4-Oxo-2-[2-(4-oxo-1,2,3-benzotriazin-3(4H)-yl)ethyl]-4-[6-(tetrahydro-2H-pyran-4-ylmethoxy)-1,2-benzoxazol-3-yl]butanoic acid] |
| 2.1 | 35.7 | 48.9 | CCCCCOc1ccc2cc(C(=O)CC(CCn3nnc4ccccc4c3=O)C(=O)O)oc2c1 (single isomer, unassigned; (+)) [Example 57, (+)-4-Oxo-2-[2-(4-oxo-1,2,3-benzotriazin-3(4H)-yl)ethyl]-4-[6-(pentyloxy)-1-benzofur-2-yl]butanoic acid] |
| 94 |  |  | O=C(CC(CCn1nnc2ccccc2c1=O)C(=O)O)c1cc2cc(OCC3CCCC3)ccc2o1 (single isomer, unassigned; enantiomer 1) [Example 17, (−)-4-[5-(Cyclopentylmethoxy)-1-benzofur-2-yl]-4-oxo-2-[2-(4-oxo-1,2,3-benzotriazin-3(4H)-yl)ethyl]butanoic acid (enantiomer 1)] |
| 24 | 19.7 | 71.8 | O=C(C[C@@H](CCn1nnc2ccccc2c1=O)C(=O)O)c1noc2cc(OCC3CCOCC3)ccc12 (single isomer, unassigned; enantiomer 1) [Example 134] |
| 15 |  |  | O=C(CC(CCn1nnc2ccccc2c1=O)C(=O)O)c1noc2cc(OCCC3CCCCC3)ccc12 (single isomer, unassigned; enantiomer 1) [Example 142, (−)-4-[6-(2-Cyclohexylethoxy)-1,2-benzoxazol-3-yl]-4-oxo-2-[2-(4-oxo-1,2,3-benzotriazin-3(4H)-yl)ethyl]butanoic acid (enantiomer 1)] |
| 0.62 |  |  | O=C(CC(CCn1nnc2ccccc2c1=O)C(=O)O)c1cc2cc(OCC3CCCCC3)ccc2o1 (single isomer, unassigned; enantiomer 2) [Example 10, (+)-4-[5-(Cyclohexylmethoxy)-1-benzofur-2-yl]-4-oxo-2-[2-(4-oxo-1,2,3-benzotriazin-3(4H)-yl)ethyl]butanoic acid (enantiomer 2)] |
| 6 |  |  | O=C(CC(CCn1nnc2ccccc2c1=O)C(=O)O)c1cc2cc(OCC3CCCC3)ccc2o1 (single isomer, unassigned; enantiomer 2) [Example 18, (+)-4-[5-(Cyclopentylmethoxy)-1-benzofur-2-yl]-4-oxo-2-[2-(4-oxo-1,2,3-benzotriazin-3(4H)-yl)ethyl]butanoic acid (enantiomer 2)] |
| 0.019 |  |  | O=C(CC(CCn1nnc2ccccc2c1=O)C(=O)O)c1noc2cc(OCCC3CCCCC3)ccc12 (single isomer, unassigned; enantiomer 2) [Example 143, (+)-4-[6-(2-Cyclohexylethoxy)-1,2-benzoxazol-3-yl]-4-oxo-2-[2-(4-oxo-1,2,3-benzotriazin-3(4H)-yl)ethyl]butanoic acid (enantiomer 2)] |
